These results are taken from patent publication US5178873A, “Essential fatty acid treatment” (Efamol Holdings PLC, priority 1990, dated 1993).

By IC50 is commonly meant the point on the concentration scale where inhibition reaches its midpoint. Read a low IC50 as greater potency.

A value given as a limit tells only on which side of the number the result lay.

One experiment concerns rat macrophage PLA2. Kind of experiment: inhibition of rat macrophage PLA2 activity by fatty acids. To be noted: for IC50: macrophages isolated from rat peritoneal cavity by lavage; for ability to inhibit PLA2, ranking among fatty acids tested: PLA2 from rat macrophages, stated for both test systems. The format is biochemical. On the procedure:
(§1) In the experimental work on which the above discussion is based, epidermal PLA2 was prepared from isolated mouse or human epidermal cells by detergent solubilisation, ion exchange chromatography and gel filtration. Both enzymes had molecular weights in the region of 68,000, a pH optimum around 9.0 and an absolute requirement for calcium ions. Phospholipids were prepared as both unilamellar vesicles and detergent micelles. PLA2 activity was readily detected using these substrates, with no apparent preference for polar head group. For the standard assay, 1-palmitoyl 2-1-^14 C. palmitoyl phosphatidyl choline was used. The reaction was initiated by the addition of purified enzyme and terminated by the addition of chloroform/methanol/acetic acid (3:4:1). The free fatty acid was extracted, separated by thin layer chromatography and quantified by scintillation counting. Ranges of concentrations of various fatty acids were added to the reaction mixture to assess their ability to inhibit PLA2. Dose response curves were constructed and the IC50 value (the concentration of fatty acid required to inhibit enzyme activity by 50%) was estimated. Similar experiments were performed using macrophages isolated from rat peritoneal cavity by lavage.

The next experiment deals with human epidermal PLA2. The experiment in a line: inhibition of human epidermal PLA2 activity by fatty acids (1-palmitoyl 2-1-^14 C. palmitoyl phosphatidyl choline substrate). The class given is biochemical. Particulars: for IC50: purified human epidermal enzyme, standard assay with 1-palmitoyl 2-1-^14 C. palmitoyl phosphatidyl choline; for ability to inhibit PLA2, ranking among fatty acids tested: PLA2 isolated from human skin, stated for both test systems. On the procedure:
as §1

With `CCCCC/C=C\C/C=C\C/C=C\CCCCCCC(=O)O` [cis 8,11,14-eicosatrienoic], the IC50 in the experiment on rat macrophage PLA2 came to 71 ± 11 µM; in the experiment with human epidermal PLA2, 61 ± 5 µM.

Consider `CCCCC/C=C\C/C=C\C/C=C\CCCCC(=O)O` [cis 6,9,12-octadecatrienoic], for which, in the experiment on human epidermal PLA2, the IC50 came to 52 ± 3 µM.

With `CC/C=C\C/C=C\C/C=C\CCCCCCCC(=O)O` [cis 9,12,15-octadecatrienoic], the IC50 in the experiment with rat macrophage PLA2 came out at 75 ± 9 µM; in the experiment on human epidermal PLA2 it was 45 ± 6 µM.

The compound `CCCCC/C=C\C/C=C\CCCCCCCC(=O)O` [18:2 cis 9,12-octadecadienoic (linoleic), delta-9,12-octadecadienoic acid] showed an IC50 with human epidermal PLA2 of 85 ± 5 µM.

With `CC/C=C\C/C=C\C/C=C\C/C=C\CCCCC(=O)O` [delta-6,9,12,15-octadecatetraenoic acid], the “ability to inhibit PLA2, ranking among fatty acids tested” value in the experiment with rat macrophage PLA2 and in the experiment on human epidermal PLA2 was “the most potent of all the fatty acids tested” each time. Also, the values for the IC50 with rat macrophage PLA2 and in the experiment on human epidermal PLA2 were 52 ± 8 µM and 37 ± 3 µM, respectively.

Compound `CC/C=C\C/C=C\C/C=C\C/C=C\C/C=C\CCCC(=O)O` [cis 5,8,11,14,17-eicosapentaenoic] gave an IC50 in the experiment with human epidermal PLA2 of 58 ± 4 µM.

Turning to `CCCCCCCCCCC/C=C\CCCCC(=O)O` [18:1 cis 6-octadecenoic, cis 6-octadecenoic], the IC50 in the experiment with rat macrophage PLA2 and in the experiment with human epidermal PLA2 was above 100 µM in each case.

The compound `CCCCC/C=C\C/C=C\CCCCCCCCCC(=O)O` [20:2 cis 11,14-eicosadienoic, cis 11,14-eicosadienoic] had an IC50 in the experiment with human epidermal PLA2 of 87 ± 6 µM.

As for `CCCCCCCC/C=C\CCCCCCCCCC(=O)O` [20:1 cis 11-eicosenoic, cis 11-eicosenoic], the IC50 in the experiment with rat macrophage PLA2 and in the experiment with human epidermal PLA2 was above 100 µM each time.

For the compound `CCCCC/C=C\C/C=C\C/C=C\C/C=C\CCCC(=O)O` [20:4 cis 5,8,11,14-eicosatetraenoic (AA), cis 5,8,11,14-eicosatetraenoic], the “ability to inhibit PLA2, ranking among fatty acids tested” value in the experiment on rat macrophage PLA2 and with human epidermal PLA2 was “closest to SA in its ability to inhibit PLA2” in each case. In addition, the IC50 worked out at 65 ± 8 µM in the experiment with rat macrophage PLA2 and 45 ± 8 µM in the experiment with human epidermal PLA2.
